Literature values in patent US11452751B2, “Medication dispensing system” (priority 2015, dated 2022).

Assays:
[1] = biological target: CB1 receptor (Homo sapiens, UniProt P21554)
[2] = biological target: T1, androgen receptor in the prostate gland (Homo sapiens, UniProt P10275)
T1 construct: host or cells: prostate gland
T1 sequence (P10275 1-920): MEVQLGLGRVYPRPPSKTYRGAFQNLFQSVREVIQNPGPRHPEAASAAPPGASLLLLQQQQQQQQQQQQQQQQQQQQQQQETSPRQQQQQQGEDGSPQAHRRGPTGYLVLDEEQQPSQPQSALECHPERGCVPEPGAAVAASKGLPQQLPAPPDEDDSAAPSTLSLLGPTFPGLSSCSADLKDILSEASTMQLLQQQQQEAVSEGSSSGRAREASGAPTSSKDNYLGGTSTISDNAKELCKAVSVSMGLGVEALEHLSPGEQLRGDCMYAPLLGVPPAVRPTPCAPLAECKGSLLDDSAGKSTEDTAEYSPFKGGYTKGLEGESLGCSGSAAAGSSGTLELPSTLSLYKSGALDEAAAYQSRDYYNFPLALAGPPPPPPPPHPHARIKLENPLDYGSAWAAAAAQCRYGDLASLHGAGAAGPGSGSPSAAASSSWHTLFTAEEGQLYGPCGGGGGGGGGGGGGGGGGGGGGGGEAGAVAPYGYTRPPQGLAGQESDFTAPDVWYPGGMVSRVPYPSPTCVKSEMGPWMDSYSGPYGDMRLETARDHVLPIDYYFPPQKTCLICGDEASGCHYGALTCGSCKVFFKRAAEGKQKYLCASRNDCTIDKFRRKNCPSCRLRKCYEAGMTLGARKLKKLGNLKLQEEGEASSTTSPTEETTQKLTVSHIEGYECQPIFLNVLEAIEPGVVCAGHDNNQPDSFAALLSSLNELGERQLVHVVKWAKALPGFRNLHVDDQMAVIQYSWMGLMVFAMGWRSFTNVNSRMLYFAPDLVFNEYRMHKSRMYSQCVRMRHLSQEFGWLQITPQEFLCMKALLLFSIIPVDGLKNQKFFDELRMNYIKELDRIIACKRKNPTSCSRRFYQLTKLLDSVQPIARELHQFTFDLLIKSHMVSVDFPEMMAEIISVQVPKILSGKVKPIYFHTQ

[3] = tested on: prostate cell line, PC-3; details: Ruiz et al. 1999
[4] = tested on: cannabinoid receptors
[5] = tested on: estrogen receptor-positive and estrogen receptor-negative breast cancer cell lines; details: inducing apoptosis in a concentration-dependent manner
[6] = tested on: nontumorigenic mammary cells
[7] = not given; remark: listed apart in the source

Sequence of CB1 receptor (P21554 whole entry): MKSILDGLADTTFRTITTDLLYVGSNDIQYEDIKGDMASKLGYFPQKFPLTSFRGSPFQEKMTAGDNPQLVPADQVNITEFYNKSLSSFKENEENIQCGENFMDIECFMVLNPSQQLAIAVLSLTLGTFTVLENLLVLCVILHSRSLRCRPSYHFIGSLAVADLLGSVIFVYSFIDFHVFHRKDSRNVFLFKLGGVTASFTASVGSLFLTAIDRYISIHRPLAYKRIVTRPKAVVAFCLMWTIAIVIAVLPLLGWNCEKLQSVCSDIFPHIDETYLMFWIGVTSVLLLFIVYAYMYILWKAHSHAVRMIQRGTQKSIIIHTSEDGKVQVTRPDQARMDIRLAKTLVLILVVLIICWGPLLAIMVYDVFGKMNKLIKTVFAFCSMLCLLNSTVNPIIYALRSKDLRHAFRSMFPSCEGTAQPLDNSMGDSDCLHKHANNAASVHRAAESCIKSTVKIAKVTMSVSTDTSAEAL

In the case of CCCc1cc(O)c2c(c1)OC(C)(C)[C@@H]1CCC(C)=C[C@@H]21 [THCV, Tetrahydrocannabivarin], the “mode of action at CB1 receptor” value [1] is listed as “CB1 receptor antagonist”.
In the case of CCCCCc1cc(O)c2c(c1)OC(C)(C)[C@@H]1CCC(C)=C[C@@H]21 [THC, Tetrahydrocannabinol], the pain sensitivity (cold-pressor test after administration, dronabinol oral capsules 10 mg or 20 mg) is listed as “decreased pain sensitivity”, the duration of effects (compared with smoked marijuana) is listed as “lasted longer than smoked marijuana” and the “time after administration at which pain reduction effects were felt” value (on the average, cold-pressor test) is listed as 180 min. For the same compound, the “specific binding of dihydroxytestosterone to the androgen receptor” value [2] was “inhibits specific binding” and the apoptosis [3] was “causes apoptosis”.
For C=C(C)[C@@H]1CCC(C)=C[C@H]1c1c(O)cc(CCCCC)cc1O [CBD, Cannabidiol], the “affinity to cannabinoid receptors” value [4] is listed as “low affinity”, the “survival of breast cancer cell lines” value [5] is listed as “inhibited the survival” and the “effect on nontumorigenic mammary cells” value [6] is listed as “little effect”.
In the case of vitamin E, the “reduction in breast cancer incidence” value ([7]; pre-menopausal women with a family history of breast cancer, highest quantity of vitamin E consumed) is listed as 43% and the “risk reduction of breast cancer” value ([7]; women without a family history of breast cancer) is listed as 16%.
